Data: patent publication US12133486B2, “Methods of propagation of arbuscular mycorrhizal fungi (AMF) and uses thereof” (Terra Microbes, LLC, priority 2021, dated 2024)

What was measured:
[1] = system: AM fungi; experiment: Field plot study: AMF spore counts in soil around western wheatgrass roots; type: in vivo; settings: field plots; for Total Spores t = 47 days / Total Spores t = 0 days: mean n = 3, P added at 120 kg/ha (KCl: same K); for Total Spores t = 47 days / spore numbers compared with the control: second sampling; for Total Spores t = 0 days: t = 0 = first sampling, 14 days after treatment; for spore numbers compared with the control: t = 47
Description: (§1) Twelve plots of size 50 cm by 50 cm were established on a homogenous site 2.54 meters (running northeast and southwest) by 4.06 meters (running southeast and northwest). Plant distribution was mostly homogeneous across the entire site, with western wheatgrass dominant. The plots were in four rows with three plots in each row. Within a row plots were 25 cm apart. Rows were 50 cm apart. An experimental unit was one plot. Treatments were replicated three times. Treatments included: controls (no treatment), potassium chloride treatment, potassium phosphate treatment, and potassium phosphite treatment. (See, FIG. 2).
In this study phosphorus, either as phosphate or phosphite, was added at a rate of 120 kg of P per hectare (ha). Scaled down this equates to 3 grams of phosphorous per plot. One ha is 10,000 m^2. Each plot is 50 cm by 50 cm, or 0.25 m^2. The subsequent calculation then is 120 Kg/10,000 m^2=X/0.25 m^2; X=3.00 grams of P per plot. (See Table 2).
(§2) Treatments: All plots received the same amount of solution. The control plots were treated with distilled water only (6.375 L). The KCl plots treated with distilled water containing the same amount of K as was needed to convert the phosphorous acid (H3PO3) to dipotassium phosphite (K2HPO3). The phosphate plots were treated with sufficient dipotassium phosphate (K2HPO4) to deliver 3 g of P per plot dissolved in the same amount of distilled water as the control plots received and the KCl plots received. The phosphite plots were treated with sufficient dipotassium phosphite (K2HPO3) to deliver 3 g of P per plot dissolved in the same amount of distilled water as the control plots received, the KCl plots received and the phosphate plots received.
The field experiment reported in this example was conducted during June through October. Plots were established during early June and treated on the 15th and 16th day (as in Example 3 above). The first soil and root sampling was performed 14 days later (t=14). The second set of samples were taken 47 days later (t=61), and the third set 60 days later (t=121 days). Sample size and depth was as detailed above in Example 3.
AMF spores were evaluated in soil samples from which plant roots including plant roots of western wheatgrass had existed and had been removed. Evaluations were performed on the T=0 and the T=47 samples. These evaluations generally entailed mixing the sample with water, centrifugation, and decanting water. This step was performed to remove light organic matter and other light materials, e.g., leaf fragments. This was followed by mixing the soil with a solution of sodium hexametaphosphate (2%) in 2 M sucrose. Centrifugation results in the spores floating on the sucrose solution or suspended in it. The sucrose solution plus spores is decanted into a separatory funnel. The suspension was allowed to exit the funnel one drop at a time. The spores adhere to the inside of the funnel and once all liquid has exited the funnel the spores are washed into a petri-dish and counted under a dissecting microscope.
The specific protocol for spore extraction was as follows: • A) Weigh 5 g of air dried soil into a 20 ml centrifuge tube. For a complete sample this is replicated four times. • B) Fill each tube with water to ˜1.5 cm of the top. Stir to suspend organic matter and other light debris. Let all tubes stand for 10 minutes. • C) Centrifuge at 2000 rpm (475.2×g) for 10 minutes. Be sure tubes are placed across from each other in the centrifuge and are within 0.1 g of the same weight. • D) Pour off and discard supernatant while stirring surface and rotating tube. • E) If much organic matter and other light material remains, repeat steps B through D. • F) Add sucrose/sodium hexametaphosphate solution (2 molar sucrose containing 2% hexametaphosphate: 684.6 g of sucrose (store grade is adequate) and 20 g of sodium hexametaphosphate in one liter of solution using distilled water) to centrifuge tubes to ˜1.5 cm of top. […]

[2] = system: AMF infections of western wheatgrass (Pascopyron smithii) roots; experiment: Field plot study: AM fungal infection of western wheatgrass roots; type: in vivo; settings: for AM Infection t = 0 days / AM Infection t = 47 days / AM Infection t = 97 days: western wheatgrass roots, field plots, mean n = 3; for AM Infection t = 0 days: first sampling; for AM Infection t = 97 days: third sampling
Description: as §1, §2
The field experiment reported in this example was conducted during June through October. Plots were established during early June and treated on the 15th and 16th day (as in Example 3 above). […] Sample size and depth was as detailed above in Example 3.
Analyses of infections were performed by examining roots of wheatgrass (Pascopyron smithii). This plant was the dominant plant in all of the plots and is known to be commonly infected with AM fungi. (See, Loree M. A. J. and Williams S. E., New Phytologist, 106:735-744, 1987; and Wang B. and Qui Y.-L. 2006, Ibid.). During sampling of soils using the methodology outlined in Example 3, above, root of target plants were removed and separated by plant species, each sample being labeled and preserved in FAA solution until being further processed.
Staining of the roots was achieved according to published procedures (see, Phillips J. M. and Hayman D. S., Trans. Brit. Mycological Soc., 55:158-160, 1970) except that cotton blue lactophenol was substituted with lactic acid glycerol with trypan blue since lactophenol is toxic. The procedure used for staining was as follows: • A) Remove roots from FAA Solutions. Cut into 1 cm lengths. Place in test tube, push roots to the bottom of the test tube. • B) Cover roots with 10% KOH (10 grams of reagent grade KOH in enough distilled water to 100 ml). Let stand overnight, about 10 hours. • C) Simmer at 90° C. for one hour in a water bath (container with water and test tubes with roots over a heat source). • D) Rinse in tap water. • E) Rinse five minutes in 0.1 N HCl (3.65 […] of HCl in 1000 ml total volume with distilled water). • F) Rinse in tap water. • G) Simmer at 90° C. one hour (in water bath) in Trypan blue Lactic Acid Glycerol (distilled water, 100 ml; lactic acid (reagent grade 85 to 88%) 100 ml; glycerin (reagent grade 85% also listed as glycerol), 200 ml; trypan blue, 0.1 grams (60% dye content). • H) Rinse in tap water. • I) Place in clear lactic acid glycerol (same formulation as above except without the Trypan blue) if destaining is necessary. Samples can be simmered at 90° C. (one hour in water bath) or left at room temperature for at least 72 hours or longer. • J) Mount on standard glass slide (2.5 cm by 7.6 cm) in lactic acid glycerol. Cover slip (2.3 cm by 4.8 cm) used.
An estimate of the degree of infection of western wheatgrass was made by making microscopic scans of each slide such that 40 root segments were evaluated. The evaluation was performed using the 20× objective, e.g., 200× total magnification—eyepieces were 10× multiplied by the objective magnification. […]

| Compound | Total Spores t = 47 days [1] [Ab Per 100 g soil] | Total Spores t = 47 days ([1]; listed as phosphite) | Total Spores t = 0 days [1] [Aa Per 100 g soil] | spore numbers compared with the control [1] | AM Infection t = 0 days [2] | AM Infection t = 47 days ([2]; second sampling) | AM Infection t = 97 days [2] | root infection level compared with control, KCl and phosphite plots ([2]; second sampling, t = 47) |
| --- | --- | --- | --- | --- | --- | --- | --- | --- |
| OP(O)O [PO3, dipotassium phosphite] | 17896 | 17,896 Per 100 g soil | 6429 | significant increase in spore numbers from the control | 32Aa Per forty 1.1 mm root segments | 31Aab Per forty 1.1 mm root segments | 39ACc Per forty 1.1 mm root segments | – |
| O=P([O-])([O-])O.[K+].[K+] [PO4, dipotassium phosphate] | 12960 | – | 4998 | significant increase in spore numbers from the control | 31Aa Per forty 1.1 mm root segments | 38.7Bbc Per forty 1.1 mm root segments | 38ACc Per forty 1.1 mm root segments | significant increase |
